Results taken from US8697714B2, “Quinazolinone based fluorogenic probes” (Nanyang Technological University, priority 2010, dated 2014).

Assays:
[1] = system: MAO activity in PC12 cells; assay: Imaging of MAO activity in living PC12 cells; assay type: cell-based, Rattus norvegicus; settings: 100 μM, 37° C., 1 h
Description: (§1) PC12 cell (Rattus norvegicus, adrenal gland) was bought from American Type Culture Collection (ATCC Cat No: CR-1721) and maintained in F-12K medium (ATCC, Manassas Va.) containing 10% FBS (Invitrogen, Burlington, Canada). PC12 cell line were seeded at a density of 2×10^5 in a 35 mm diameter μ-dish plastic bottom (ibidi GmbH, Germany) and cultured for 2 days with Nerve Growth Factor (2.5S, 30 ng/mL, Invitrogen, Carlsbad, Calif.)^[2] in Dulbecco's Modified Eagle Medium (DMEM 1×, without phenol red, Gibco/Invitrogen, Carlsbad, Calif.) containing 4.5 g/L D-glucose, 2 mM GlutaMax-1 (Invitrogen). Control C6 glioma cell line was bought from American Type Culture Collection (ATCC Cat No.: CCL-107) and cultured with the same protocol as PC12 cell lines). After 2 days of culture, the live PC12 and C6 glioma cell lines were washed twice with DMEM. The live cells were then treated separately with 100 μM of MAO-HPQ 1 in DMEM (containing 0.5% of DMSO) and incubated for 1 hour in an incubator at 37° C. The cells were washed twice with Hank's Balanced Salt solution (Sigma). The fluorescence imaging was acquired with a Confocal fluorescence microscope (Nikon, Eclipse TE2000-E) using a super high pressure mercury lamp (Nikon, TE2-PS100W) with excitation filter: 360/40 nm; emission filter: 535/40 nm.
(§2) PC12 cell line was chosen owing to its high expression of MAO. […]

PC12 cell line = assay: Cell viability, standard MTT assay; assay type: cell-based, Rattus norvegicus; settings: FIG. 6
Description: FIG. 6 illustrates the cell viability of substrate MAO-HPQ 1 (2-(5′-chloro-2′-(3-aminopropoxy)phenyl)-6-chloro-4(3H)-quinazolinone) and 2-(2′-hydroxy-5′-chlorophenyl)-6-chloro-4(3H)-quinazolinone (indicated as HPQ″) in PC12 cell line. As a Control, cells were treated with 5% of DMSO only.
the cytotoxicity activity of MAO-HPQ 1 was evaluated by the standard MTT assay as previously described in Y. H. Choi et al, J. Control. Rel., 1998, 54, 39-48. MAO-HPQ 1 indicates less toxicity and thereby can be used as a probe for real-time imaging of MAO activity in living cells (FIG. 6).

monoamine oxidase B = molecular target: T1, monoamine oxidase B (Homo sapiens, UniProt P27338); assay: Fluorescent enhancement of MAO substrates after incubation with MAO B; assay type: biochemical; settings: MAO B 10 μg/ml, substrate 200 μM, 37° C., 2 hours, emission 530 nm
T1 construct: purchased Sigma Aldrich
T1 sequence (P27338 1-520): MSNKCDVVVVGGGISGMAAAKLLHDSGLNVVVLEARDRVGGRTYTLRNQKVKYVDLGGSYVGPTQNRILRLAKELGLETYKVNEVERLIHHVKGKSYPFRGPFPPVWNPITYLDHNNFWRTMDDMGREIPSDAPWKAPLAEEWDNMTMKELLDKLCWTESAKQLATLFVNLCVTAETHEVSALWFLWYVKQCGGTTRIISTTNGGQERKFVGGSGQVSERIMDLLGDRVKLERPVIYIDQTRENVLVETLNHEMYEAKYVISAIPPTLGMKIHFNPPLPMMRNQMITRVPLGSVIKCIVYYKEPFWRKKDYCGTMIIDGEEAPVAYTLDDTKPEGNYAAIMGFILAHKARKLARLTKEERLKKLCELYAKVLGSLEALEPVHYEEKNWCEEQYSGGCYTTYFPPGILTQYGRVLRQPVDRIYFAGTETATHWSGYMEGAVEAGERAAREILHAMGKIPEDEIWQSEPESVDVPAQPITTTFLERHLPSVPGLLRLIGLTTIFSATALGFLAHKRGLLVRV
Description: (§3) Activity of fluorogenic MAO-HPQ 1, 2 and 3 were determined by the fluorescence intensity after incubations separately with monoamine oxidase A or B at 37° C. for 2 hours. Typically, 5 μl of MAO A and B enzyme solution (final concentration of 10 μg/ml) was incubated with MAO substrates 1, 2 and 3 (final concentration of 200 μM) in a 100 mM Tris-HCl buffer, pH 7.90, 5% glycerol and 5% DMSO. After 2 hours of incubation, the fluorescent enhancement was monitored by Fluorescence spectrophotometer with excitation wavelength at 360 nm.
(§4) The activity of these three probes (MAO-HPQ 1˜3) towards both MAO isozymes were investigated by in vitro fluorescent measurements. All the MAO substrates 1, 2, and 3 were very stable in aqueous solutions and were almost non-fluorescent before MAO enzymatic oxidation due to the alkylation of the 2′-hydroxyl group in the 2-(2′-hydroxy-5′-chlorophenyl)-6-chloro-4(3H)-quinazolinone fluorophore.
(§5) The ratio of fluorescent intensity in the presence and absence of MAO enzymes were used to estimate MAO activities.

C6 glioma cells = assay: Imaging in living C6 glioma cells (negative control, no MAO expression); assay type: cell-based; settings: 100 μM, 37° C., 1 h
Description: as §1, §2

monoamine oxidase A = molecular target: T2, monoamine oxidase A (Homo sapiens, UniProt P21397); assay: Fluorescent enhancement of MAO substrates after incubation with MAO A; assay type: biochemical; settings: MAO A 10 μg/ml, substrate 200 μM, 37° C., 2 hours, emission 530 nm
T2 construct: purchased Sigma Aldrich
T2 sequence (P21397 1-527): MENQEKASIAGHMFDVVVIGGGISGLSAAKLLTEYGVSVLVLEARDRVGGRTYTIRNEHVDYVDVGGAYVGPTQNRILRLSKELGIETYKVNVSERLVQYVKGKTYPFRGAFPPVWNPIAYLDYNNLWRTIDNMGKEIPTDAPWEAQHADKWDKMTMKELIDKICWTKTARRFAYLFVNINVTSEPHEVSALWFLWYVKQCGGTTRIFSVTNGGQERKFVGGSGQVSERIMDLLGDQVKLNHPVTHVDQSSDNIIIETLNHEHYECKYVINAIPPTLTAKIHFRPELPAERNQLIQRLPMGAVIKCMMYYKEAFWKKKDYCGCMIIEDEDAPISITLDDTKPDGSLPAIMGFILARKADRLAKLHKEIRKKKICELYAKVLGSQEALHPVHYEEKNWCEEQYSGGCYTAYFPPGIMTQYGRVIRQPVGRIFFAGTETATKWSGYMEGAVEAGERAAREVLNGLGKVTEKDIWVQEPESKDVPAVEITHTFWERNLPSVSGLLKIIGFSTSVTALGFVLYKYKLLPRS
Description: as §3, §4, §5

[2] = Stability of substrates in aqueous solutions; assay type: physicochemical; settings: before MAO enzymatic oxidation
Excerpt: as §4

[3] = system: MAO activity in PC12 cells; assay: Inhibition imaging: PC12 cells pre-treated with inhibitor, then MAO-HPQ 1; assay type: cell-based, Rattus norvegicus; settings: 100 μM inhibitor pre-treatment, then 100 μM MAO-HPQ 1, 37° C., 1 h
Description: In the inhibition investigation, the live PC12 cell lines were washed twice with DMEM and pre-treated separately with 100 μM Clorgyline and Pargyline in DMEM for 1 hour in an incubator at 37° C. MAO-HPQ 1 was then added to the μ-dish with the final concentration of 100 μM and incubated for another 1 hour at 37° C. The cells were then washed twice with Hank's Balanced Salt solution. The fluorescence imaging was acquired with the Confocal fluorescence microscope.
Further imaging investigations were conducted by utilizing two commonly used inhibitors: Clorgyline for MAO A and Pargyline for MAO B. The PC12 cells were pre-treated separately with 100 μM of MAO A inhibitor clorgyline and MAO B inhibitor pargyline, and then incubated with 100 μM of MAO-HPQ probe 1 at 37° C. for 1 h. […] This is in accordance with the in vitro enzyme inhibition tests (FIG. 5). MAO-HPQ 1 indicates less toxicity (FIG. 6) and thereby can be used as a new probe for real-time imaging of MAO activity in living cells.

Structure (SMILES) | maximum fluorescent enhancement (ratio of fluorescent intensity in the presence and absence of MAO enzyme) (monoamine oxidase B) | maximum fluorescent enhancement (ratio of fluorescent intensity in the presence and absence of MAO enzyme) (monoamine oxidase A) | stability in aqueous solutions [2] | fluorescence in live cell imaging [1] | cytotoxicity activity (MTT) (PC12 cell line) | fluorescence in live cell imaging (C6 glioma cells) | fluorescence of PC12 cells pre-treated with inhibitor (MAO inhibition in living cells) [3]
NCCCOc1ccc(Cl)cc1-c1nc2ccc(Cl)cc2c(=O)[nH]1 [MAO-HPQ 1, 2-(5′-chloro-2′-(3-aminopropoxy)phenyl)-6-chloro-4(3H)-quinazolinone] | 300 fold | 307 fold | very stable | bright fluorescence signals | less toxicity | little | –
C#CCN(C)CCCOc1ccc(Cl)cc1Cl [clorgyline, Clorgyline] | – | – | – | – | – | – | no obvious fluorescence
C#CCN(C)Cc1ccccc1 [pargyline, Pargyline] | – | – | – | – | – | – | strong fluorescence similar to the imaging result without inhibitor treatment

Second part, led by results:

maximum fluorescent enhancement (ratio of fluorescent intensity in the presence and absence of MAO enzyme) (monoamine oxidase B) | maximum fluorescent enhancement (ratio of fluorescent intensity in the presence and absence of MAO enzyme) (monoamine oxidase A) | stability in aqueous solutions [2] | Structure (SMILES) | fluorescence in live cell imaging [1] | cytotoxicity activity (MTT) (PC12 cell line) | fluorescence in live cell imaging (C6 glioma cells) | fluorescence of PC12 cells pre-treated with inhibitor (MAO inhibition in living cells) [3]
20 fold | 15 fold | very stable | CNCCCOc1ccc(Cl)cc1-c1nc2ccc(Cl)cc2c(=O)[nH]1 [MAO-HPQ 2, 2-(5′-chloro-2′-(3-(N-methylamino)propoxy)phenyl)-6-chloro-4(3H)-quinazolinone] | – | – | – | –
7 fold | 5 fold | very stable | CN(C)CCCOc1ccc(Cl)cc1-c1nc2ccc(Cl)cc2c(=O)[nH]1 [MAO-HPQ 3, 2-(5′-chloro-2′-(3-(N,N′-dimethylamino)propoxy)phenyl)-6-chloro-4(3H)-quinazolinone] | – | – | – | –
